Read-outs that look alike come from different tables or passages of the source.
Columns and labels:
Rad51 [1] = target: T1, Rad51 (Homo sapiens, UniProt Q06609); assay: DNA invasion by D-loop assay (strand exchange); assay type: biochemical
T1 sequence (Q06609 1-339): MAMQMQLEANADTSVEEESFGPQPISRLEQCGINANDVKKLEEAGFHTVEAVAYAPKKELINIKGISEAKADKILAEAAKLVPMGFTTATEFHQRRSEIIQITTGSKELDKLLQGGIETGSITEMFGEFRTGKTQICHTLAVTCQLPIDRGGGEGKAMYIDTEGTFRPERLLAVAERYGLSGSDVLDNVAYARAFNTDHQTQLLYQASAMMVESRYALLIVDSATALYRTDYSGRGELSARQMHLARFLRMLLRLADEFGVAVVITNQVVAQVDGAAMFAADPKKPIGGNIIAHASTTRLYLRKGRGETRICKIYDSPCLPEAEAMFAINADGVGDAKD
Description: Labeled 100-ssDNA** (1 μM) was incubated with 0.5 μM Rad51 in presence or absence of the indicated amounts of the corresponding molecule in 10 μL of standard reaction buffer containing 20 mM Tris-HCl (pH 8), 1 mM ATP, 1 mM DTT, 1 mM CaCl2) at 37° C. for 20 min. The reaction was initiated by adding supercoiled pPB4.3 DNA (200 μM in bp). After incubation of 30 min at 37° C., the reactions were stopped and deproteinized by a stop solution (10 mM Tris-HCl pH 8, 10 mM MgCl2, 1% SDS, and 1 mg/mL proteinase K. The reaction mixtures were further incubated for 15 min at 37° C. After adding 5-fold loading dye (0.05% bromophenol blue, 8% glycerol, 1 mM EDTA), the reaction products were separated by electrophoresis on 1% agarose gel. The electrophoresis was carried out in 0.5×TAE buffer (20 mM Tris, 10 mM acetic acid and 1 mM EDTA) at 100 V for 2 h. The labeled products (100-ssDNA** and D-loop) were visualized and quantified by the detection of the IRD-700 dye with the 700 nm infrared fluorescent detection channel of an Odyssey Infrared Imager (LI-COR) (Normand, A. et al., Biochemical Pharmacology, October 2014, Vol. 91, No. 3, pp. 293-300).
The “D-loop” in vitro test allows the quantification of the formation of the strand exchange structure (D-loop) and thus the determination of the inhibitory power of a molecule during the strand exchange step of the recombinase mechanism. IC50 measuring the RAD51 protein inhibition in presence of compounds A-1 to A-5, […] and DIDS are then calculated.

HsRad51 = target: T2, HsRad51 (Homo sapiens, UniProt Q06609); assay: RAD51 oligomerization by SDS-PAGE gel after crosslink; assay type: biochemical; settings: 2.5 μM HsRad51, disuccinimidyl suberate crosslink, SDS-PAGE/Western blot; FIG. 1
T2 sequence (Q06609 1-339): T1 sequence (Q06609 1-339)
Description: The reaction was performed at room temperature. 2.5 μm HsRad51 was incubated with the indicated concentrations of tested compounds for 10 min in a buffer containing 20 mm sodium phosphate, 50 mm NaCl, 1 mm MgCl 2, and 1 mm ATP. The cross-linking reactions were initiated by the addition of disuccinimidyl suberate (50 μm) and allowed to proceed for 30 min. Reactions were quenched by the addition of Tris-HCl (pH 7.5, final concentration: 50 mm) followed by subsequent incubations for 15 min. The products were then separated by 12% SDS polyacrylamide gel electrophoresis and detected by Western blot with mouse monoclonal anti-Rad51 antibody (NeoMarkers) and anti-mouse Alexa-Fluor 700-conjugated secondary antibody (Molecular Probes, Eugene, OR). The cross-linked dimer was quantified by an Odyssey Infrared Imaging System scanner (Li-Cor Biosciences) (Martinez, S. F. et al., “Targeting human Rad51 by specific DNA aptamers induces inhibition of homologous recombination”, Biochimie, December 2010, Vol. 92, No. 12, pp. 1832-1838).
The SDS-PAGE electrophoresis after crosslink maintains and immobilizes the RAD51 protein complexes and thus allows visualization of the degree of oligomerization (polymer formation) of the RAD51 protein. The effect of RAD51 protein inhibitors B-1, B-2, B-3, DIDS and X-4 on this key step of RAD51 protein recombinase activity has thus been evaluated. The results are presented on FIG. 1.

Rad51 [2] = target: T1, Rad51; assay: RAD51 nucleofilament formation by Bio-Layer Interferometry (BLItz), binding of Rad51 to ssDNA; settings: for activity on nucleofilament formation compared with reference molecule BPQ / formation of RAD51 protein nucleofilament (relative binding of RAD51 protein with single-stranded DNA): FIG. 2; for formation of RAD51 protein nucleofilament (relative binding of RAD51 protein with single-stranded DNA): increasing doses of inhibitors; for activity on nucleofilament formation compared with reference molecule DIDS: low dose (5 μM)
Description: The binding of Rad51 to ssDNA was monitored and quantified by Bio-Layer Interferometry technology using the BLItz platform (FortéBio Inc.). The procedure includes four steps: (1) the baseline in buffer A containing 1×PBS, 10 mM MgCl2 and 0.0075% Tween20 was recorded for 20 s; (2) loading and binding of Rad51 were measured for 40 s using 1.5 μM Rad51 and 1 mM ATP in buffer A; (3) the dissociation of Rad51 from ssDNA was recorded for 20 s in buffer A; (4) the ssDNA biosensor was regenerated using baths of 50 mM NaOH. Except for the step 2, which used 4 μL drop of the protein sample, the steps 1, 3 and 4 used 250 μL solutions in 0.5 mL tube. The measurement parameters were as follows: room temperature measurement and stirring speed of 2200 rpm. To investigate the effect of CSB and analogs to the ssDNA binding of Rad51, the molecule was included in the protein sample of the step 2 at the indicated concentrations and incubated for 5 min before loading on the biosensor. (Normand, A. et al., “Identification and characterization of human Rad51 inhibitors by screening of an existing drug library.”, Biochemical Pharmacology, October 2014, Vol. 91, No. 3, pp. 293-300).
A test based on interferometry (Blitz®, Fortebio) allows the measure of the association kinetics of RAD51 protein with a single-stranded DNA immobilized on a biosensor support in the presence or absence of an inhibitor. The effect of compounds B-1, B-2, B-3, BPQ and X-4 on RAD51 nucleofilament formation has been evaluated in presence of increasing doses of inhibitors. The results are presented on FIG. 2.

[3] = tested on: recombinant fibroblast line RG37; assay: Intracellular homologous recombination (HR), GFP reconstitution after I-SceI cleavage, flow cytometry; assay type: cell-based; settings: RG37 cells, 72 h after pCMV-HA-I-SceI transfection; FIG. 3
Description: After transfection with the pCMV-HA-I-SceI plasmid and incubation for 72 h, the cells were collected in PBS and 50 mM EDTA, pelleted and fixed with 2% paraformaledhyde for 20 min. The percentage of GFP-expressing cells was scored by FACS analysis using Cytoflex (Beckman Coulter). At least 3 independent experiments were performed, and HA-I-SceI expression was verified each time by Western blot with rabbit anti-HA antibody (Abcam).
The recombinant fibroblast line RG37 is used to confirm in vitro results (Examples 2-5) in the cellular context. This cellar line comprises two non-functional GFP cassettes, one of which has a unique cleavage site inducible by transfection of a restriction enzyme. After cleavage, which is equivalent to a double-strand break (DSB) of the DNA, the homologous recombination (HR) leads to the reconstitution of a complete GFP cassette thus making the cell fluorescent. The rate of intracellular HR is then determined by measurement in flow cytometry so as to measure the level of HR in cells after treatment with compounds C-3, B-2 and X-2.

DU-145 cell line = assay: Clonogenicity test, sensitizing effect with an antineoplastic drug; assay type: cell-based; settings: Homo sapiens; DU-145, camptothecin alone; read-out: IC50 (clonogenic survival, camptothecin)
Description: Clonogenicity tests are carried out against several model cell lines derived from cancer including prostate cancer (DU-145). Cells are exposed to an anti-cancer agent targeting DNA (cisplatin or camptothecin). Damaged cells are counted and seeded in the presence or in the absence of B-2 in triplicate culture plates. After about two weeks of incubation at 37° C. the number of clones formed is counted. Each cell capable of repairing its lesions will then form a clone. After counting, the percentage of survival will be calculated relative to the control condition for which it is considered that there is 100% survival.
The main interest of RAD51 protein inhibitors is the sensitization of chemo-resistant or radio-resistant cancerous cell lines. Clonogenicity evaluation was carried out on the DU-145 cell line treated with cisplatin treatment in the presence or in the absence of disulfonate stilbene B-2 (RAD51 protein inhibitor).
DU-145 cell line was treated with camptothecin in the presence or in the absence of disulfonate stilbene B-2 (RAD51 protein inhibitor) and the clonogenic cell survival was determined.

[4] = 0.5 μM Rad51, 1 μM 100-ssDNA, 37° C., read-out: IC50 (RAD51 protein inhibition, D-loop formation)

SMILES	IC50 (Rad51 [1]; [4]) [µM]	oligomerization state of RAD51 protein (HsRad51)	formation of RAD51 protein nucleofilament (relative binding of RAD51 protein with single-stranded DNA) (Rad51 [2])	other results
O=S(=O)([O-])c1cc(I)ccc1/C=C/c1ccc(I)cc1S(=O)(=O)[O-].[K+].[K+] [B-3, Potassium (E)-6,6′-(ethene-1,2-diyl)bis(3-iodobenzenesulfonate)]	34	significant reduction	inhibit	activity on nucleofilament formation compared with reference molecule BPQ (Rad51 [2]): comparable to or even better; activity on nucleofilament formation compared with reference molecule DIDS (Rad51 [2]): comparable
O=C(Nc1ccc(/C=C/c2ccc(NC(=O)Oc3ccccc3)cc2S(=O)(=O)[O-])c(S(=O)(=O)[O-])c1)Oc1ccccc1.[Na+].[Na+] [C-3, Sodium (E)-6,6′-(ethene-1,2-diyl)bis(3-((phenoxycarbonyl)amino)benzenesulfonate)]	–	–	–	IC50 (Rad51 [1]): 2 µM; intracellular HR inhibition [3]: significant inhibitory effect
O=C(Nc1ccc(/C=C/c2ccc(NC(=O)Oc3ccccc3)cc2)cc1)Oc1ccccc1 [X-2, Diphenyl (ethene-1,2-diylbis(4,1-phenylene))(E)-dicarbamate, reference compound]	–	–	–	intracellular HR inhibition [3]: does not lead to any inhibition
[N-]=[N+]=Nc1ccc(/C=C/c2ccc(N=[N+]=[N-])cc2)cc1 [X-4, (E)-1,2-bis(4-azidophenyl)ethene, reference compound]	–	no effect	no inhibitory effect whatsoever	–
CC[C@@]1(O)C(=O)OCc2c1cc1n(c2=O)Cc2cc3ccccc3nc2-1 [camptothecin, reference compound]	–	–	–	IC50 (DU-145 cell line): 0.098 µM

Second part, led by results:

IC50 (Rad51 [1]; [4]) [µM]	SMILES	oligomerization state of RAD51 protein (HsRad51)	formation of RAD51 protein nucleofilament (relative binding of RAD51 protein with single-stranded DNA) (Rad51 [2])	other results
> 10	O=C(Nc1ccc(/C=C/c2ccc(NC(=O)c3ccccc3)cc2S(=O)(=O)O)c(S(=O)(=O)O)c1)c1ccccc1 [A-3, Sodium (E)-6,6′-(ethene-1,2-diyl)bis(3-benzamidobenzenesulfonate)]	–	–	–
6	COc1ccc(C(=O)Nc2ccc(/C=C/c3ccc(NC(=O)c4ccc(OC)cc4)cc3S(=O)(=O)O)c(S(=O)(=O)O)c2)cc1 [A-4, Sodium (E)-6,6′-(ethene-1,2-diyl)bis(3-(4-methoxybenzamido)benzenesulfonate)]	–	–	–
21	[N-]=[N+]=Nc1ccc(/C=C/c2ccc(N=[N+]=[N-])cc2S(=O)(=O)[O-])c(S(=O)(=O)[O-])c1.[Na+].[Na+] [B-1, Sodium (E)-6,6′-(ethene-1,2-diyl)bis(3-azidobenzenesulfonate)]	significant reduction	inhibit	activity on nucleofilament formation compared with reference molecule BPQ (Rad51 [2]): comparable to or even better; activity on nucleofilament formation compared with reference molecule DIDS (Rad51 [2]): comparable
41	O=S(=O)(O)c1cc(NS(=O)(=O)c2ccccc2)ccc1/C=C/c1ccc(NS(=O)(=O)c2ccccc2)cc1S(=O)(=O)O [S-1, Sodium (E)-6,6′-(ethene-1,2-diyl)bis(3-(phenylsulfonamido)benzenesulfonate)]	–	–	–
29	Cc1ccc(S(=O)(=O)Nc2ccc(/C=C/c3ccc(NS(=O)(=O)c4ccc(C)cc4)cc3S(=O)(=O)O)c(S(=O)(=O)O)c2)cc1 [S-2, Sodium (E)-6,6′-(ethene-1,2-diyl)bis(3-((4-methylphenyl)sulfonamido)benzenesulfonate)]	–	–	–

Source: patent US12233041B2, “Disulfonate stilbenes for use in the treatment of proliferative diseases” (UNIVERSITÉ DE NANTES, priority 2018, dated 2025)
